What was measured:
[1] = target: T1, FGFR1 (Homo sapiens, UniProt P11362); assay: Isolated enzyme FRET-based Z-Lyte kinase inhibition assay; assay type: biochemical; conditions: means from 3 independent experiments; read-out: Isolate Enzyme Inhibition IC50, FGFR1
T1 construct: purchased Invitrogen
Description: (§1) FGFR1-4 and the Z-Lyte Kinase Assay Kit were purchased from Invitrogen. The concentration gradients from 5.1×10^−11 to 1.0×10^−6 mol/L were used for all the test compounds. The experiments were performed according to the instructions of the manufacturer.
(§2) FGFR1-4 isolated enzyme activity was determined using the FRET-based Z-Lyte kinase inhibition assay. The data are the means from 3 independent experiments.

[2] = target: T2, FGFR2 (Homo sapiens, UniProt P21802); assay: as above; assay type: biochemical; conditions: means from 3 independent experiments; read-out: Isolate Enzyme Inhibition IC50, FGFR2
T2 construct: purchased Invitrogen
Description: as §1, §2

[3] = target: T3, FGFR3 (Homo sapiens, UniProt P22607); assay: as above; assay type: biochemical; conditions: means from 3 independent experiments; read-out: Isolate Enzyme Inhibition IC50, FGFR3
T3 construct: purchased Invitrogen
Description: as §1, §2

[4] = tested on: FGFR3 in SW780 cells (phospho-ERK1/2); assay: Drug washout Western blot assay, SW780 cells; assay type: cell-based; conditions: SW780; 30 min exposure, 100 nM, with and without washout
[5] = tested on: FGFR1 in H520 cells (phospho-ERK1/2); assay: Drug washout Western blot assay, H520 cells; assay type: cell-based; conditions: H520; 30 min exposure, 100 nM, with and without washout

T2 sequence (P21802 22-821): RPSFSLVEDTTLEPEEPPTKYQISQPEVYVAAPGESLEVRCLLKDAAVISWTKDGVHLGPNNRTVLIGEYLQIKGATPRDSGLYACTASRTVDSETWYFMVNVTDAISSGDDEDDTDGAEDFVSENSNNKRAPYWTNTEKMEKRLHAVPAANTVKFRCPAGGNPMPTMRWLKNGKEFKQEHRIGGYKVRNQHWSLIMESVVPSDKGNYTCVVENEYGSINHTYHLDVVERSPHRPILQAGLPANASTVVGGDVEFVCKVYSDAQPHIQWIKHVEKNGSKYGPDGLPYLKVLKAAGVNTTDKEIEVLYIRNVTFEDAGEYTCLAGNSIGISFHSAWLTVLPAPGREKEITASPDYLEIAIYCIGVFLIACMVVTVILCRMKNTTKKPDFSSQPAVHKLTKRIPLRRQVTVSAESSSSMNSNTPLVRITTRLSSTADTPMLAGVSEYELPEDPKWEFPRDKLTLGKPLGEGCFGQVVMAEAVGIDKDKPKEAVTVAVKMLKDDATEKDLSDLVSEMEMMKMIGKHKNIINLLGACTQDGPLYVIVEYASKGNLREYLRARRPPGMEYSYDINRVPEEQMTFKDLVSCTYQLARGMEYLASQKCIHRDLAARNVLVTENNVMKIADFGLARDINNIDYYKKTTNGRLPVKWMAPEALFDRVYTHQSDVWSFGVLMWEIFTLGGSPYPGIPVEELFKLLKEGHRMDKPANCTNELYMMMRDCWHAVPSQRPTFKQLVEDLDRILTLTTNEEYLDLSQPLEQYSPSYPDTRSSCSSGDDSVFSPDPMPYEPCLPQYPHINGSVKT
T3 sequence (P22607 23-806): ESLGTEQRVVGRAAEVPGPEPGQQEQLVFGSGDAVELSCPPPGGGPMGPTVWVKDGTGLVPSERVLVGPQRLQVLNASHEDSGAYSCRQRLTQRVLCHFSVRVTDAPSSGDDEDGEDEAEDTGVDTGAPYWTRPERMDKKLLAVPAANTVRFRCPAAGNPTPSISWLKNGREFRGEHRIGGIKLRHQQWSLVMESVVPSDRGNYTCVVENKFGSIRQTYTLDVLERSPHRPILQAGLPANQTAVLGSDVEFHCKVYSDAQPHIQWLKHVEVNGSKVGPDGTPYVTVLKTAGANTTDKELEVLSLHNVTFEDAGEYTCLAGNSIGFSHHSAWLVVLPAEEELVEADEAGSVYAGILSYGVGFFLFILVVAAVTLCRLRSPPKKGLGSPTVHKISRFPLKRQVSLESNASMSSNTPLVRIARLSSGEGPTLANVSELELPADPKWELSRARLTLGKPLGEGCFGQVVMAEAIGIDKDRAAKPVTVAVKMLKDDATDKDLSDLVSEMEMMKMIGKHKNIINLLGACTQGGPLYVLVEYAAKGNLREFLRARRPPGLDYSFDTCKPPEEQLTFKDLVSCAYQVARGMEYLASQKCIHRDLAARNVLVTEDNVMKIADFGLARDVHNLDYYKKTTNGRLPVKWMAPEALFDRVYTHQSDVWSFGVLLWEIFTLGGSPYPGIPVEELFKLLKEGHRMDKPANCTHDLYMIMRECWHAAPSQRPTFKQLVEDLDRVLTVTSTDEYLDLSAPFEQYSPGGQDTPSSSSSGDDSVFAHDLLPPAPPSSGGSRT
T1 sequence (P11362 22-822): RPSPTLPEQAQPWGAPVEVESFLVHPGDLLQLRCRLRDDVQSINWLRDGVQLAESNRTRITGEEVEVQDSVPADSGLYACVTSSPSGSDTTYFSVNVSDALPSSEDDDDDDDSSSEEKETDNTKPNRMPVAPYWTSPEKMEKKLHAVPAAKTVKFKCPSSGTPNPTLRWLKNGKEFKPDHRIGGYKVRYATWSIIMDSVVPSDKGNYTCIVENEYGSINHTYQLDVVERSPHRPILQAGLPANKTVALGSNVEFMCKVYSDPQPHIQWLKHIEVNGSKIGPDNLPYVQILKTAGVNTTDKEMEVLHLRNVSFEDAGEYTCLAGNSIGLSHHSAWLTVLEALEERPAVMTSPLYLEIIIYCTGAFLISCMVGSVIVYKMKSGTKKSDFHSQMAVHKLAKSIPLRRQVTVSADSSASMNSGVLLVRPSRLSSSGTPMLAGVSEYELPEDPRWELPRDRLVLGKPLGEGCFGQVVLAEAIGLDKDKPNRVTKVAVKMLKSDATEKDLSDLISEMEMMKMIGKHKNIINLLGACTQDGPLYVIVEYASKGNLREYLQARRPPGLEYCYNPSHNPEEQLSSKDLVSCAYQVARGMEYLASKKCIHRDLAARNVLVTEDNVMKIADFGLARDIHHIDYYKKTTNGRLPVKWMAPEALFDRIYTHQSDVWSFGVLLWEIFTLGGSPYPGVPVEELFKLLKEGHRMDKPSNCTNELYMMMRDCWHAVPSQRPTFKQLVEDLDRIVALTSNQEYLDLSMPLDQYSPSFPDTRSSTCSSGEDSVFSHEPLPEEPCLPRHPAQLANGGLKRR

Row | SMILES | IC50 [1] | IC50 [2] | IC50 [3] | reversible or irreversible inhibition of FGFR3 in cells [4] | reversible or irreversible inhibition of FGFR1 in cells [5] | melting point
1 | CNc1ncc2c(n1)N(C1CCN(C(=O)/C=C/CN3CCOCC3)CC1)C(=O)N(c1c(Cl)c(OC)cc(OC)c1Cl)C2 [Compound 123, (E)-3-(2,6-dichloro-3,5-dimethoxyphenyl)-7-(methylamino)-1-(1-(4-morpholinobut-2-enoyl)piperidin-4-yl)-3,4-dihydropyrimido[4,5-d]pyrimidin-2(1H)-one] | 0.7 nM | 2.7 nM | 8.3 nM | potent reversible inhibitors |  | 
2 | CNc1ncc2c(n1)N(C1CCC(NC(=O)/C=C/CN(C)C)CC1)C(=O)N(c1c(Cl)c(OC)cc(OC)c1Cl)C2 (stereo not shown) [Compound 126, (E)-N-(4-(3-(2,6-dichloro-3,5-dimethoxyphenyl)-7-(methylamino)-2-oxo-3,4-dihydropyrimido[4,5-d]pyrimidin-1(2H)-yl)cyclohexyl)-4-(dimethylamino)but-2-enamide] | 0.5 nM | 1.5 nM | 6.8 nM | potent reversible inhibitors |  | 
3 | COc1cc(OC)c(Cl)c(-c2cc3cnc(NC(C)C)nc3n(C3CCN(C(=O)/C=C/CN(C)C)CC3)c2=O)c1Cl [Compound 133, (E)-6-(2,6-dichloro-3,5-dimethoxyphenyl)-8-(1-(4-(dimethylamino)but-2-enoyl)piperidin-4-yl)-2-(isopropylamino)pyrido[2,3-d]pyrimidin-7(8H)-one] | 1 nM | 1.5 nM | 11 nM | potent irreversible inhibitors | potent irreversible inhibitors | 
4 | COc1cc(OC)c(Cl)c(-c2cc3cnc(NCC4CCOCC4)nc3n(C3CCN(C(=O)/C=C/CN(C)C)CC3)c2=O)c1Cl [Compound 137, (E)-6-(2,6-dichloro-3,5-dimethoxyphenyl)-8-(1-(4-(dimethylamino)but-2-enoyl)piperidin-4-yl)-2-(((tetrahydro-2H-pyran-4-l)methyl)amino)pyrido[2,3-d]pyrimidin-7(8H)-one] | 0.7 nM | 1.8 nM | 6.2 nM | potent reversible inhibitors |  | 
5 | CNc1cc2c(cn1)cc(-c1c(Cl)c(OC)cc(OC)c1Cl)c(=O)n2C1CCN(C(=O)/C=C/CN(C)C)CC1 [Compound 148, (E)-3-(2,6-dichloro-3,5-dimethoxyphenyl)-1-(1-(4-(dimethylamino)but-2-enoyl)piperidin-4-yl)-7-(methylamino)-1,6-naphthyridin-2(1H)-one] |  |  |  |  |  | 209 to 212 °C
6 | COc1cc(OC)c(Cl)c(-c2cc3cnc(NC(C)C)cc3n(C3CCN(C(=O)/C=C/CN(C)C)CC3)c2=O)c1Cl [Compound 149, (E)-3-(2,6-dichloro-3,5-dimethoxyphenyl)-1-(1-(4-(dimethylamino)but-2-enoyl)piperidin-4-yl)-7-(isopropylamino)-1,6-naphthyridin-2(1H)-one] |  |  |  |  |  | 243 to 246 °C
7 | COc1cc(OC)c(Br)c(N2Cc3cnc(NC(C)C)nc3N(C3CCN(C(=O)/C=C/CN(C)C)CC3)C2=O)c1Br [Compound 151, (E)-3-(2,6-dibromo-3,5-dimethoxyphenyl)-1-(1-(4-(dimethylamino)but-2-enoyl)piperidin-4-yl)-7-(isopropylamino)-3,4-dihydropyrimido[4,5-d]pyrimidin-2(1H)-one] | 4.2 nM | 3.5 nM | 35 nM |  | reversible binding characteristics | 
8 | COc1cc(OC)c(Br)c(-c2cc3cnc(Nc4ccccc4)nc3n(C3CCN(C(=O)/C=C/CN(C)C)CC3)c2=O)c1Br [Compound 152, (E)-6-(2,6-dibromo-3,5-dimethoxyphenyl)-8-(1-(4-(dimethylamino)but-2-enoyl)piperidin-4-yl)-2-(phenylamino)pyrido[2,3-d]pyrimidin-7(8H)-one] | 0.7 nM | 1.1 nM | 2 nM |  | potent irreversible inhibitors | 
9 | COc1cc(OC)c(Br)c(-c2cc3cnc(NC(C)C)nc3n(C3CCN(C(=O)/C=C/CN(C)C)CC3)c2=O)c1Br [Compound 153, (E)-6-(2,6-dibromo-3,5-dimethoxyphenyl)-8-(1-(4-(dimethylamino)but-2-enoyl)piperidin-4-yl)-2-(isopropylamino)pyrido[2,3-d]pyrimidin-7(8H)-one] | 0.8 nM | 1 nM | 7.6 nM |  | potent irreversible inhibitors | 
10 | COc1cc(OC)c(Br)c(-c2cc3cnc(NC(C)C)cc3n(C3CCN(C(=O)/C=C/CN(C)C)CC3)c2=O)c1Br [Compound 155, (E)-3-(2,6-dibromo-3,5-dimethoxyphenyl)-1-(1-(4-(dimethylamino)but-2-enoyl)piperidin-4-yl)-7-(isopropylamino)-1,6-naphthyridin-2(1H)-one] |  |  |  |  |  | 251 to 254 °C
11 | COc1cc(OC)c(Cl)c(N2Cc3cnc(Nc4ccccn4)nc3N(C3CCN(C(=O)/C=C/CN(C)C)CC3)C2=O)c1Cl [Compound 157, (E)-3-(2,6-dichloro-3,5-dimethoxyphenyl)-1-(1-(4-(dimethylamino)but-2-enoyl)piperidin-4-yl)-7-(pyridin-2-ylamino)-3,4-dihydropyrimido[4,5-d]pyrimidin-2(1H)-one] |  |  |  |  |  | 224 to 227 °C
12 | COc1cc(OC)c(Cl)c(N2Cc3cnc(Nc4cccnc4)nc3N(C3CCN(C(=O)/C=C/CN(C)C)CC3)C2=O)c1Cl [Compound 158, (E)-3-(2,6-dichloro-3,5-dimethoxyphenyl)-1-(1-(4-(dimethylamino)but-2-enoyl)piperidin-4-yl)-7-(pyridin-3-ylamino)-3,4-dihydropyrimido[4,5-d]pyrimidin-2(1H)-one] |  |  |  |  |  | 207 to 209 °C
13 | COc1cc(OC)c(Cl)c(N2Cc3cnc(Nc4ccncc4)nc3N(C3CCN(C(=O)/C=C/CN(C)C)CC3)C2=O)c1Cl [Compound 159, (E)-3-(2,6-dichloro-3,5-dimethoxyphenyl)-1-(1-(4-(dimethylamino)but-2-enoyl)piperidin-4-yl)-7-(pyridin-4-ylamino)-3,4-dihydropyrimido[4,5-d]pyrimidin-2(1H)-one] |  |  |  |  |  | > 300 °C
14 | COc1cc(OC)c(Cl)c(N2Cc3cnc(Nc4ccn(C)n4)nc3N(C3CCN(C(=O)/C=C/CN(C)C)CC3)C2=O)c1Cl [Compound 160, (E)-3-(2,6-dichloro-3,5-dimethoxyphenyl)-1-(1-(4-(dimethylamino)but-2-enoyl)piperidin-4-yl)-7-((1-methyl-1H-pyrazol-3-yl)amino)-3,4-dihydropyrimido[4,5-d]pyrimidin-2(1H)-one] |  |  |  |  |  | 203 °C
15 | COc1cc(OC)c(Cl)c(-c2cc3cnc(Nc4ccccc4)cc3n(C3CCN(C(=O)/C=C/CN(C)C)CC3)c2=O)c1Cl [Compound 232, (E)-3-(2,6-dichloro-3,5-dimethoxyphenyl)-1-(1-(4-(dimethylamino)but-2-enoyl)piperidin-4-yl)-7-(phenylamino)-1,6-naphthyridin-2(1H)-one] |  |  |  |  |  | 230 to 233 °C

— patent publication US11192890B2, “FGFR kinase inhibitors and pharmaceutical uses” (AUCKLAND UNISERVICES LIMITED, priority 2017, dated 2021)
